Values quoted from earlier work in patent US20210361582A1, “COLCHICINE SALICYLATE DERIVATIVES AND METHODS OF TREATMENT” (Murray and Poole Enterprises, LTD., priority 2015, published 2021).

What was measured:
[1] = at 18 months; 120 patients; conventional treatment with aspirin vs plus colchicine 1.0 to 2.0 mg first day then 0.5 to 1.0 mg/day for 3 months; p=0.004
[2] = at 18 months; 84 patients; aspirin alone vs plus colchicine 1.0-2.0 mg first day then 0.5-1.0 mg/d for 6 months
[3] = in vivo
[4] = colchicine 0.5 mg/day in addition to statins and other standard secondary prevention therapies; 532 patients; median 3 years

## CC(=O)Oc1ccccc1C(=O)O [aspirin]
[1]
  recurrence rate (primary end point): 32.3%
[2]
  recurrence rate (actuarial rates): 50.6%

## COc1cc2c(c(OC)c1OC)-c1ccc(OC)c(=O)cc1[C@@H](NC(C)=O)CC2 [colchicine, N[5,6,7,9-tetrahydro-1,2,3,10-tetratmethoxy 9-oxobenzo[a]heptalen-7-yl],(S)-acetamide]
[3]; human
  bioavailability, inter patient variations: 20-80%
[3]
  bioavailability: ca. 45%
  second peak (resorption from colon), share of totally absorbed colchicine: about 50%
[4]
  prevention of cardiovascular events: appeared effective
[1]
  recurrence rate (primary end point): 10.7%
[2]
  recurrence rate (actuarial rates): 24.0%
